Structures can show the parent of a compound that is named as a salt.
Molecular target: T1, BACE1 (Homo sapiens, UniProt P56817)
T1 construct: Human HEK293 cells which are stably transfected with a vector expressing a cDNA of the human APP wt gene (APP695); endogenous in cells; host or cells: HEK293 cells stably expressing human APP695 wt
Test: Cellular Aβ-lowering assay a) (Aβ40 ELISA, HEK293 APP cells)
Format: cell-based
Conditions: cellular assay a): HEK293 APP695 cells, 18-20 hrs incubation, read-out: BACE1 cell act. Aβ40 IC50
Method: Cellular Aβ-Lowering Assay:
a) Human HEK293 cells which are stably transfected with a vector expressing a cDNA of the human APP wt gene (APP695) were used to assess the potency of the compounds in a cellular assay. The cells were seeded in 96-well microtiter plates in cell culture medium (Iscove, plus 10% (v/v) fetal bovine serum, glutamine, penicillin/streptomycin) to about 80% confluence and the compounds were added at a 10× concentration in 1/10 volume of medium without FCS containing 8% DMSO (final concentration of DMSO was kept at 0.8% v/v). After 18-20 hrs incubation at 37° C. and 5% CO2 in a humidified incubator the culture supernatant was harvested for the determination of Aβ40 concentrations. 96 well ELISA plates (e.g., Nunc MaxiSorb) were coated with monoclonal antibody which specifically recognize the C-terminal end of Aβ40 (Brockhaus et al., NeuroReport 9, 1481-1486; 1998). After blocking of non-specific binding sites with e.g. 1% BSA and washing, the culture supernatants were added in suitable dilutions together with a horseradish peroxidase-coupled Aβ detection antibody (e.g., antibody 4G8, Senetek, Maryland Heights, Mo.) and incubated for 5 to 7 hrs. Subsequently the wells of the microtiter plate were washed extensively with Tris-buffered saline containing 0.05% Tween 20 and the assay was developed with tetramethylbenzidine/H2O2 in citric acid buffer. After stopping the reaction with one volume 1 NH2SO4 the reaction was measured in an ELISA reader at 450 nm wavelength. The concentrations of Aβ in the culture supernatants were calculated from a standard curve obtained with known amounts of pure Aβ peptide.

T1 sequence (P56817 46-501): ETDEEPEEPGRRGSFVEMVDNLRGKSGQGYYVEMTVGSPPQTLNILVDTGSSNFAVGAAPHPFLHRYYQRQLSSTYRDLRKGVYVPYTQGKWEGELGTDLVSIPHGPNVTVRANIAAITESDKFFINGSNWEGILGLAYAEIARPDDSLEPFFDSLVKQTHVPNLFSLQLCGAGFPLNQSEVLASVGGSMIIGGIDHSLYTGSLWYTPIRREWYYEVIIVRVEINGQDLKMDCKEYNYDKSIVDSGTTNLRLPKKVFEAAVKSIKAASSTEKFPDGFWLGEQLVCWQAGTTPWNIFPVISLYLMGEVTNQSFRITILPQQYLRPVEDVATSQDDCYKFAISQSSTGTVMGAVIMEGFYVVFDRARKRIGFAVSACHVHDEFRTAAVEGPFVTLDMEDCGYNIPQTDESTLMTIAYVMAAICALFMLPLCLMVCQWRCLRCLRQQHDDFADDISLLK

SMILES	IC50 [µM]
C[C@]1(c2cc(NCC3CCOC3)ccc2F)N=C(N)OCC1(F)F (mixture of isomers) [Example 30, (R)-5,5-Difluoro-4-{2-fluoro-5-{[(RS)-1-(tetrahydro-furan-3-yl)methyl]-amino}-phenyl}-4-methyl-5,6-dihydro-4H-[1,3]oxazin-2-ylamine]	2.16
C[C@@]1(c2cc(NC3CCCC3)ccc2F)CCOC(N)=N1 [Example 2, (S)-4-(5-Cyclopentylamino-2-fluoro-phenyl)-4-methyl-5,6-dihydro-4H-[1,3]oxazin-2-ylamine]	0.34
Cc1cc(C(C)Nc2ccc(F)c([C@@]3(C)N=C(N)OCC3(F)F)c2)[nH]n1 (mixture of isomers) [Example 17, (R)-5,5-Difluoro-4-{2-fluoro-5-[(RS)-1-(5-methyl-2H-pyrazol-3-yl)-ethylamino]-phenyl}-4-methyl-5,6-dihydro-4H-[1,3]oxazin-2-ylamine]	0.43
C[C@]1(c2cc(NC3CCCc4cc(C#N)cnc43)ccc2F)N=C(N)OCC1(F)F (mixture of isomers) [Example 27, (RS)-8-[3-((R)-2-Amino-5,5-difluoro-4-methyl-5,6-dihydro-4H-[1,3]oxazin-4-yl)-4-fluoro-phenylamino]-5,6,7,8-tetrahydro-quinoline-3-carbonitrile]	0.46
C[C@]1(c2cc(NC3COC3)ccc2F)N=C(N)OCC1(F)F [Example 29, (R)-5,5-Difluoro-4-[2-fluoro-5-(oxetan-3-ylamino)-phenyl]-4-methyl-5,6-dihydro-4H-[1,3]oxazin-2-ylamine]	1.96
Cc1cnn(-c2ccc(F)c([C@@]3(C)N=C(N)OC[C@@H]3F)c2)c1 [Example 11, (4R,5R)-5-Fluoro-4-[2-fluoro-5-(4-methyl-pyrazol-1-yl)-phenyl]-4-methyl-5,6-dihydro-4H-[1,3]oxazin-2-ylamine]	1.3
C[C@]1(c2cc(-c3cncc(C#N)c3)ccc2F)N=C(N)OC[C@@H]1F [Example 9, 5-[3-((4R,5R)-2-Amino-5-fluoro-4-methyl-5,6-dihydro-4H-[1,3]oxazin-4-yl)-4-fluoro-phenyl]-nicotinonitrile]	0.19
C[C@]1(c2cc(-c3cnn(-c4ccc(F)cc4)c3)ccc2F)N=C(N)OCC1(F)F [Example 31, (R)-5,5-Difluoro-4-{2-fluoro-5-[1-(4-fluoro-phenyl)-1H-pyrazol-4-yl]-phenyl}-4-methyl-5,6-dihydro-4H-[1,3]oxazin-2-ylamine]	8.44
CC(Nc1ccc(F)c([C@@]2(C)N=C(N)OCC2(F)F)c1)c1cc(C2CC2)on1 (mixture of isomers) [Example 20, (R)-4-{5-[(RS)-1-(5-Cyclopropyl-isoxazol-3-yl)-ethylamino]-2-fluoro-phenyl}-5,5-difluoro-4-methyl-5,6-dihydro-4H-[1,3]oxazin-2-ylamine]	2
CC(Nc1ccc(F)c([C@@]2(C)N=C(N)OCC2(F)F)c1)c1nn(C)cc1Cl (mixture of isomers) [Example 18, (R)-4-{5-[(RS)-1-(4-Chloro-1-methyl-1H-pyrazol-3-yl)-ethylamino]-2-fluoro-phenyl}-5,5-difluoro-4-methyl-5,6-dihydro-4H-[1,3]oxazin-2-ylamine]	1.23
C[C@]1(c2cc(NC3CCOC3)ccc2F)N=C(N)OCC1(F)F (mixture of isomers) [Example 26, (R)-5,5-Difluoro-4-{2-fluoro-5-[(RS)-(tetrahydro-furan-3-yl)amino]-phenyl}-4-methyl-5,6-dihydro-4H-[1,3]oxazin-2-ylamine]	0.4
C[C@]1(c2cc(NC3CS(=O)(=O)c4ccccc43)ccc2F)N=C(N)OCC1(F)F (mixture of isomers) [Example 28, (R)-4-[5-((RS)-1,1-Dioxo-2,3-dihydro-1H-1λ6-benzo[b]thiophen-3-ylamino)-2-fluoro-phenyl]-5,5-difluoro-4-methyl-5,6-dihydro-4H-[1,3]oxazin-2-ylamine]	1.63
C[C@]1(c2cc(-c3cnn(-c4ccc(F)cc4)c3)ccc2F)N=C(N)OC[C@@H]1F [Example 10, (4R,5R)-5-Fluoro-4-{2-fluoro-5-[1-(4-fluoro-phenyl)-1H-pyrazol-4-yl]-phenyl}-4-methyl-5,6-dihydro-4H-[1,3]oxazin-2-ylamine Hydrochloride]	0.36
CC1(CNc2ccc(F)c([C@@]3(C)N=C(N)OCC3(F)F)c2)COC1 [Example 24, (R)-5,5-Difluoro-4-{2-fluoro-5-[(3-methyl-oxetan-3-ylmethyl)-amino]-phenyl}-4-methyl-5,6-dihydro-4H-[1,3]oxazin-2-ylamine]	0.3
C[C@]1(c2cc(NCc3ccsc3)ccc2F)N=C(N)OC[C@@H]1F [Example 6, (4R,5R)-5-Fluoro-4-{2-fluoro-5-[(thiophen-3-ylmethyl)-amino]-phenyl}-4-methyl-5,6-dihydro-4H-[1,3]oxazin-2-ylamine]	0.66
CC(Nc1ccc(F)c([C@@]2(C)N=C(N)OCC2(F)F)c1)c1nn(CC(F)F)cc1Cl (mixture of isomers) [Example 19, (R)-4-(5-{(RS)-1-[4-Chloro-1-(2,2-difluoro-ethyl)-1H-pyrazol-3-yl]-ethylamino}-2-fluoro-phenyl)-5,5-difluoro-4-methyl-5,6-dihydro-4H-[1,3]oxazin-2-ylamine]	1.8

Now from value to compound:

IC50 [µM]	SMILES
2.92	Cc1ccccc1Nc1ccc(F)c([C@@]2(C)N=C(N)OC(C)(C)C2(F)F)c1 [Example 45, (R)-5,5-Difluoro-4-(2-fluoro-5-o-tolylamino-phenyl)-4,6,6-trimethyl-5,6-dihydro-4H-[1,3]oxazin-2-ylamine]
9.08	CC1(C)OC(N)=N[C@](C)(c2cc(-c3cncc(Cl)c3)ccc2F)C1(F)F [Example 50, (R)-4-[5-(5-Chloro-pyridin-3-yl)-2-fluoro-phenyl]-5,5-difluoro-4,6,6-trimethyl-5,6-dihydro-4H-[1,3]oxazin-2-ylamine Hydrochloride]
1.4	C[C@]1(c2cccc(OCc3ccc(C#N)cc3)c2)N=C(N)OCC1(F)F [Example 34, 4-[3-((R)-2-Amino-5,5-difluoro-4-methyl-5,6-dihydro-4H-[1,3]oxazin-4-yl)-phenoxymethyl]-benzonitrile]
4	C[C@]1(c2cccc(OCc3ccc(Cl)cc3)c2)N=C(N)OCC1(F)F [Example 35, (R)-4-[3-(4-Chloro-benzyloxy)-phenyl]-5,5-difluoro-4-methyl-5,6-dihydro-4H-[1,3]oxazin-2-ylamine]
6.62	C#CCNC(=O)c1ccc(F)c([C@@]2(C)N=C(N)OCC2(F)F)c1 [Example 41, 3-((R)-2-Amino-5,5-difluoro-4-methyl-5,6-dihydro-4H-[1,3]oxazin-4-yl)-4-fluoro-N-prop-2-ynyl-benzamide]
0.3	Cc1ccc(Cc2nc3ccc([C@@]4(C)N=C(N)OCC4(F)F)cc3[nH]2)cc1 [Example 37, (R)-5,5-Difluoro-4-methyl-4-[2-(4-methyl-benzyl)-3H-benzoimidazol-5-yl]-5,6-dihydro-4H-[1,3]oxazin-2-ylamine]
7.74	C[C@]1(c2cccc(OCc3ccc(C(F)(F)F)cc3)c2)N=C(N)OCC1(F)F [Example 36, (R)-5,5-Difluoro-4-methyl-4-[3-(4-trifluoromethyl-benzyloxy)-phenyl]-5,6-dihydro-4H-[1,3]oxazin-2-ylamine]
5.46	C[C@]1(c2cc3c(cc2F)OCC(c2ccc(Cl)cn2)N3)N=C(N)OCC1(F)F (mixture of isomers) [Example 38, (R)-4-[(RS)-3-(5-Chloro-pyridin-2-yl)-7-fluoro-3,4-dihydro-2H-benzo[1,4]oxazin-6-yl]-5,5-difluoro-4-methyl-5,6-dihydro-4H-[1,3]oxazin-2-ylamine]
1.47	CC1(C)OC(N)=N[C@](C)(c2cc(Nc3ccccc3Cl)ccc2F)C1(F)F [Example 42, (R)-4-[5-(2-Chloro-phenylamino)-2-fluoro-phenyl]-5,5-difluoro-4,6,6-trimethyl-5,6-dihydro-4H-[1,3]oxazin-2-ylamine]
5.67	COc1ccc(Cc2cc3cc(F)c([C@@]4(C)N=C(N)OCC4(F)F)cc3[nH]2)cc1 [Example 39, (R)-5,5-Difluoro-4-[5-fluoro-2-(4-methoxy-benzyl)-1H-indol-6-yl]-4-methyl-5,6-dihydro-4H-[1,3]oxazin-2-ylamine]
6.92	CC1(C)OC(N)=N[C@](C)(c2cc(Nc3ccccc3C(F)(F)F)ccc2F)C1(F)F [Example 46, (R)-5,5-Difluoro-4-[2-fluoro-5-(2-trifluoromethyl-phenylamino)-phenyl]-4,6,6-trimethyl-5,6-dihydro-4H-[1,3]oxazin-2-ylamine]
